Experiment [1] has as its target T1, PRMT5 (Homo sapiens, UniProt O14744).
T1 construct: purchased Viva (custom protein)
Kind of experiment: PRMT5 IC50 assay in the presence of SAM as cofactor. It is filed as biochemical. In a few lines: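 IC50 against PRMT5 determined with SAM as cofactor, with no cofactor, and with MTA as cofactor. Ki derived as IC50/1.5 for the SAM assay and IC50/13.5 for the MTA assay; SAM Ki to MTA Ki ratio also reported.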

The next experiment has as its system HAP1 MTAP-intact. Briefly: SDMA in-cell western assay, HAP1 MTAP-intact cell line. Format: cell-based. Particulars: Homo sapiens. In outline: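 IC50 values come from SDMA in-cell western staining of HAP1 cells. The MTAP-intact line carries endogenous MTAP, while its MTAP-deleted counterpart lacks MTAP entirely. A selectivity ratio of at least 3 fold marks a compound as MTAP-selective.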

Another experiment has as its system HAP1 MTAP-deleted. Briefly: SDMA in-cell western assay, HAP1 MTAP-deleted cell line. It is filed as cell-based. Particulars: for IC50: Homo sapiens, HAP1 MTAP-deleted cell line; for MTAP Intact/Deleted Ratio: IC50 ratio HAP1 MTAP-intact / HAP1 MTAP-deleted. In a few lines:
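Readout is cellular SDMA signal by in-cell western, with IC50 values derived from it. The cells are MTAP-null HAP1, matched to an isogenic MTAP-intact HAP1 line.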

For experiment [2], the target named is T1, PRMT5. Briefly: PRMT5 IC50 assay in the presence of MTA as cofactor. It is filed as biochemical. Particulars: for IC50: PRMT5, MTA as cofactor. In a few lines:
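For the SAM-containing format, dividing IC50 by 1.5 yields Ki; for the MTA-containing format the divisor is 13.5. A third format without cofactor gives IC50 alone.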

Experiment [3] addresses T1, PRMT5. Kind of experiment: PRMT5 IC50 assay with no cofactor. Format: biochemical. In a few lines:
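Each compound is tested on PRMT5 in the presence of SAM, of MTA, and without any cofactor. Ki values are then back-calculated using fixed factors of 1.5 (SAM) and 13.5 (MTA), and the two Ki values are compared as a ratio.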

Setting [4] is: ratio between Ki in the presence of SAM and Ki in the presence of MTA.
[5] abbreviates: ratio between the Ki in the presence of SAM and the Ki in the presence of MTA.

The results in this text go back to patent publication US11986471B2, “Compounds and methods of use” (Tango Therapeutics, Inc., priority 2018, dated 2024).

What is called IC50 is the concentration that inhibits the measured activity by half.

Structures are written as SMILES. A value given as a limit tells only on which side of the number the result lay.

T1 sequence (O14744 whole entry): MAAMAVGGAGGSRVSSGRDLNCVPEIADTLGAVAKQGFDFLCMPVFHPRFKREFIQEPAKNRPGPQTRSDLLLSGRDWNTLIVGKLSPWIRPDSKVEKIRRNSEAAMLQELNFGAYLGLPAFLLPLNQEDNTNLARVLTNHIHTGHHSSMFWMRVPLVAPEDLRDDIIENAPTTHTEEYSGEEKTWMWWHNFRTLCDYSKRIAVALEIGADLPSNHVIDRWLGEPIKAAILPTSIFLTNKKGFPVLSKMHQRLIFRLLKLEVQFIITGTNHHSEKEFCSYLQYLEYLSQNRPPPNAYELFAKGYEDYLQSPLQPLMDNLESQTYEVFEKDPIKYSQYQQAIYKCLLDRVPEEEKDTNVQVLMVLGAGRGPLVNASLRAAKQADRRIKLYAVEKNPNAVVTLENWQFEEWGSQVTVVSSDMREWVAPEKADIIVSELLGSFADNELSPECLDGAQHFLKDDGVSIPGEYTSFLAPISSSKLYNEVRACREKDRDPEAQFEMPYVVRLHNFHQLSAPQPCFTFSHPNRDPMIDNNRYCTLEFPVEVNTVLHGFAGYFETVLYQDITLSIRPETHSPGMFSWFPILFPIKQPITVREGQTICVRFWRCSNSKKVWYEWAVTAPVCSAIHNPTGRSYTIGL
T1 sequence (Q9BQA1 whole entry partner): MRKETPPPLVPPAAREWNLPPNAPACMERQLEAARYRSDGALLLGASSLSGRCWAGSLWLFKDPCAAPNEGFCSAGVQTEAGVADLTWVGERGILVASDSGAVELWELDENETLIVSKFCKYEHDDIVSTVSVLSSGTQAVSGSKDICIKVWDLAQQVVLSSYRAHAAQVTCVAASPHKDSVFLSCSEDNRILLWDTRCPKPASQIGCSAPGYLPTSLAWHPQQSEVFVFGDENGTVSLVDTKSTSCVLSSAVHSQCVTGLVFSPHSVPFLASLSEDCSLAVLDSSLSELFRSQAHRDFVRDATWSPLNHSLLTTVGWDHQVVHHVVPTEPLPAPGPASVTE

For the compound `O=C(NC[C@H](O)CN1CCc2cc(OCc3cnco3)ccc2C1)c1ccnc(NC2CCCC2)c1` [Compound 407, (S)-2-(cxclopentylamino)-N-(2-hydroxy-3-(6-(oxazol-5-ylmethoxy)-3N-dihydroisoquinolin-2(1H)-yl)propyl)isonicotinamide], the half-inhibitory concentration (IC50) at PRMT5 [1] was 50 to 500 nM; in the experiment with HAP1 MTAP-intact, less than 1000 nM; in the experiment with HAP1 MTAP-deleted, less than 1000 nM; at PRMT5 [2] it was 50 to 500 nM; at PRMT5 [3] (read-out: No Co-factor IC50), not below 5000 nM. The “MTAP Intact/Deleted Ratio” value with HAP1 MTAP-deleted was “B* (an IC50 ratio greater than or equal to 3 fold but lower than 10 fold between the IC50 in the HAP1 MTAP-intact cell line and the HAP1 MTAP-deleted cell line)”. Further, the “SAM/MTA Ratio” value at PRMT5 [2] (setting [4]) is “A (a Ki ratio greater than or equal to 10 fold between the Ki in the presence of SAM and the Ki in the presence of MTA)”.
Consider `Cc1ncoc1COc1ccc2c(c1)CCN(C[C@@H](O)CNC(=O)c1ccnc(NC3CCN(C(=O)C4CC4)CC3)c1)C2` [Compound 624, (S)-2-((1-(cyclopropanecarbonyl)piperidin-4-yl)amino)-N-(2-hydroxy-3-(6-((4-methyloxazol-5-yl)methoxy)-3,4-dihydroisoquinolin-2(1H)-yl)propyl)isonicotinamide], for which the IC50 was 50 to 500 nM at PRMT5 [1]; 1000 to 10000 nM with HAP1 MTAP-intact; less than 1000 nM with HAP1 MTAP-deleted; less than 50 nM on PRMT5 [2]; 500 to 5000 nM on PRMT5 [3] (read-out: No Co-factor IC50). Further, the “MTAP Intact/Deleted Ratio” value in the experiment on HAP1 MTAP-deleted was “A* (an IC50 ratio greater than or equal to 10 fold between the IC50 in the HAP1 MTAP-intact cell line and the HAP1 MTAP-deleted cell line)”. In addition, the “SAM/MTA Ratio” value at PRMT5 [2] (setting [4]) is “A (a Ki ratio greater than or equal to 10 fold between the Ki in the presence of SAM and the Ki in the presence of MTA)”.
`CN1CCN(c2nc(NC3COC3)cc(C(=O)NC[C@H](O)CN3CCc4c(ccc(OCc5cnco5)c4Cl)C3)n2)CC1` [Compound 285, (S)—N-(3-(5-chloro-6-(oxazol-5-ylmethoxy)-3,4-dihydroisoquinolin-2(1H)-yl)-2-hydroxypropyl)-2-(4-methylpiperazin-1-yl)-6-(oxetan-3-ylamino)pyrimidine-4-carboxamide]: the IC50 was 50 to 500 nM at PRMT5 [1]; not below 10000 nM in the experiment on HAP1 MTAP-intact; 1000 to 10000 nM with HAP1 MTAP-deleted; 50 to 500 nM at PRMT5 [2]; 500 to 5000 nM on PRMT5 [3] (read-out: No Co-factor IC50). The “MTAP Intact/Deleted Ratio” value with HAP1 MTAP-deleted is “C* (an IC50 ratio of less than 3 fold between the IC50 in the HAP1 MTAP-intact cell line and the HAP1 MTAP-deleted cell line)”. Also, the “SAM/MTA Ratio” value on PRMT5 [2] (setting [4]) is “A (a Ki ratio greater than or equal to 10 fold between the Ki in the presence of SAM and the Ki in the presence of MTA)”.
Take `Cc1ncoc1COc1ccc2c(c1)CCN(C[C@@H](O)CNC(=O)c1cccc(NC3COC3)c1)C2` [Compound 262, (S)—N-(2-hydroxy-3-(6-((4-methyloxazol-5-yl)methoxy)-3N-dihydroisoquinolin-2(1H)-yl)propyl)-3-(oxetan-3-ylamino)benzamide]: the half-maximal inhibitory concentration (IC50) at PRMT5 [1] was 500 to 5000 nM; with HAP1 MTAP-intact, 1000 to 10000 nM; in the experiment with HAP1 MTAP-deleted, 1000 to 10000 nM; at PRMT5 [2] it was 50 to 500 nM; at PRMT5 [3] (read-out: No Co-factor IC50), not below 5000 nM. The “MTAP Intact/Deleted Ratio” value in the experiment with HAP1 MTAP-deleted is “C* (an IC50 ratio of less than 3 fold between the IC50 in the HAP1 MTAP-intact cell line and the HAP1 MTAP-deleted cell line)”. The “SAM/MTA Ratio” value on PRMT5 [2] (setting [4]) is “A (a Ki ratio greater than or equal to 10 fold between the Ki in the presence of SAM and the Ki in the presence of MTA)”.
On to `Cc1ncoc1COc1ccc2c(c1)CCN(C[C@@H](O)CNC(=O)c1ccc(OC3CCN(Cc4ccccc4)CC3)cc1)C2` [Compound 392], for which the 50% inhibitory concentration (IC50) on PRMT5 [1] is 50 to 500 nM; in the experiment with HAP1 MTAP-intact, less than 1000 nM; with HAP1 MTAP-deleted, less than 1000 nM; on PRMT5 [2], 50 to 500 nM; on PRMT5 [3] (read-out: No Co-factor IC50) it was 500 to 5000 nM. Besides, the “MTAP Intact/Deleted Ratio” value in the experiment on HAP1 MTAP-deleted was “C* (an IC50 ratio of less than 3 fold between the IC50 in the HAP1 MTAP-intact cell line and the HAP1 MTAP-deleted cell line)”. The “SAM/MTA Ratio” value on PRMT5 [2] (setting [4]) was “A (a Ki ratio greater than or equal to 10 fold between the Ki in the presence of SAM and the Ki in the presence of MTA)”.
Consider `CCC(=O)N1CC(Nc2cc(C(=O)NC[C@H](O)CN3CCc4c(ccc(OCc5cnco5)c4Cl)C3)ccn2)C1` [Compound 426, (S)—N-(3-(5-chloro-6-(oxazol-5-ylmethoxy)-3,4-dihydroisoquinolin-2(1H)-yl)-2-hydroxypropyl)-2-((1-propionylazetidin-3-yl)amino)isonicotinamide], for which the concentration for half-maximal inhibition (IC50) was 50 to 500 nM at PRMT5 [1]; not below 10000 nM with HAP1 MTAP-intact; not below 10000 nM with HAP1 MTAP-deleted; 50 to 500 nM on PRMT5 [2]; 500 to 5000 nM on PRMT5 [3]. In addition, in the experiment with HAP1 MTAP-deleted, the “MTAP Intact/Deleted Ratio” value is “C* (an IC50 ratio of less than 3 fold between the IC50 in the HAP1 MTAP-intact cell line and the HAP1 MTAP-deleted cell line)”. The “SAM/MTA Ratio” value at PRMT5 [2] (setting [5]) is “A (a Ki ratio greater than or equal to 10 fold between the Ki in the presence of SAM and the Ki in the presence of MTA)”.
With `Cc1ncoc1COc1ccc2c(c1)CCN(C[C@@H](O)CNC(=O)c1cncc(NC3CCC3)c1)C2` [Compound 271, (S)-5-(cyclobutylamino)-N-(2-hydroxy-3-(6-((4-methyloxazol-5-yl)methoxy)-3N-dihydroisoquinolin-2(1H)-yl)propyl)nicotinamide], the concentration for half-maximal inhibition (IC50) is 50 to 500 nM on PRMT5 [1]; less than 1000 nM in the experiment on HAP1 MTAP-intact; less than 1000 nM in the experiment with HAP1 MTAP-deleted; 50 to 500 nM on PRMT5 [2]; 500 to 5000 nM on PRMT5 [3] (read-out: No Co-factor IC50). The “MTAP Intact/Deleted Ratio” value in the experiment with HAP1 MTAP-deleted was “C* (an IC50 ratio of less than 3 fold between the IC50 in the HAP1 MTAP-intact cell line and the HAP1 MTAP-deleted cell line)”. In addition, the “SAM/MTA Ratio” value at PRMT5 [2] (setting [4]) was “A (a Ki ratio greater than or equal to 10 fold between the Ki in the presence of SAM and the Ki in the presence of MTA)”.
Turning to `Cc1ncoc1COc1ccc2c(c1Br)CCN(C[C@@H](O)CNC(=O)c1cc(NC3CCCC3)ncn1)C2` [Compound 358, (S)—N-(3-(5-bromo-6-((4-methyloxazol-5-yl)methoxy)-3,4-dihydroisoquinolin-2(1H)-yl)-2-hydroxypropyl)-6-(cyclopentylamino)pyrimidine-4-carboxamide], the IC50 on PRMT5 [1] was 500 to 5000 nM; in the experiment on HAP1 MTAP-intact, not below 10000 nM; in the experiment with HAP1 MTAP-deleted it was not below 10000 nM; on PRMT5 [2], 500 to 5000 nM; on PRMT5 [3] (read-out: No Co-factor IC50), not below 5000 nM. In addition, in the experiment with HAP1 MTAP-deleted, the “MTAP Intact/Deleted Ratio” value is “C* (an IC50 ratio of less than 3 fold between the IC50 in the HAP1 MTAP-intact cell line and the HAP1 MTAP-deleted cell line)”. Besides, the “SAM/MTA Ratio” value at PRMT5 [2] (setting [4]) was “A (a Ki ratio greater than or equal to 10 fold between the Ki in the presence of SAM and the Ki in the presence of MTA)”.
On to `Cc1ncoc1COc1ccc2c(c1C)CCN(C[C@@H](O)CNC(=O)c1cc(NC3COC3)nc(N3CCN(C)CC3)n1)C2` [Compound 456, N-[(2S)-2-hydroxy-3-{5-methyl-6-[(4-methyl-1,3-oxazol-5-yl)methoxy]-1,2,3,4-tetrahydroisoquinolin-2-yl}propyl]-2-(4-methylpiperazin-1-yl)-6-[(oxetan-3-yl)amino]pyrimidine-4-carboxamide], for which the IC50 is 50 to 500 nM on PRMT5 [1]; not below 10000 nM in the experiment with HAP1 MTAP-intact; 1000 to 10000 nM with HAP1 MTAP-deleted; 50 to 500 nM at PRMT5 [2]; not below 5000 nM at PRMT5 [3]. Moreover, in the experiment on HAP1 MTAP-deleted, the “MTAP Intact/Deleted Ratio” value is “C* (an IC50 ratio of less than 3 fold between the IC50 in the HAP1 MTAP-intact cell line and the HAP1 MTAP-deleted cell line)”. The “SAM/MTA Ratio” value at PRMT5 [2] (setting [5]) was “A (a Ki ratio greater than or equal to 10 fold between the Ki in the presence of SAM and the Ki in the presence of MTA)”.
Turning to `O=C(NC[C@H](O)CN1CCc2c(ccc(OCc3cnco3)c2Cl)C1)c1ccnc(NC2CCCC(F)(F)C2)c1` (some centres unmarked) [Compound 347], the IC50 on PRMT5 [1] was 50 to 500 nM; with HAP1 MTAP-intact, not below 10000 nM; with HAP1 MTAP-deleted, not below 10000 nM; on PRMT5 [2], 50 to 500 nM; on PRMT5 [3] (read-out: No Co-factor IC50), not below 5000 nM. Moreover, the “MTAP Intact/Deleted Ratio” value with HAP1 MTAP-deleted was “C* (an IC50 ratio of less than 3 fold between the IC50 in the HAP1 MTAP-intact cell line and the HAP1 MTAP-deleted cell line)”. At PRMT5 [2] (setting [4]), the “SAM/MTA Ratio” value is “A (a Ki ratio greater than or equal to 10 fold between the Ki in the presence of SAM and the Ki in the presence of MTA)”.
`CC(=O)N1CCC(Nc2cc(C(=O)NC[C@H](O)CN3CCc4cc(OCc5ocnc5C)c(F)cc4C3)ncn2)CC1` [Compound 576, 6-[(1-acetyl-4-piperidyl)amino]-N-[(2S)-3-[7-fluoro-6-[(4-methyloxazol-5-yl)methoxy]-3N-dihydro-1H-isoquinolin-2-yl]-2-hydroxy-propyl]pyrimidine-4-carboxamide]: the IC50 was 50 to 500 nM on PRMT5 [1]; 1000 to 10000 nM in the experiment with HAP1 MTAP-intact; 1000 to 10000 nM with HAP1 MTAP-deleted; 50 to 500 nM on PRMT5 [2]; 500 to 5000 nM on PRMT5 [3]. In the experiment with HAP1 MTAP-deleted, the “MTAP Intact/Deleted Ratio” value was “B* (an IC50 ratio greater than or equal to 3 fold but lower than 10 fold between the IC50 in the HAP1 MTAP-intact cell line and the HAP1 MTAP-deleted cell line)”. Moreover, the “SAM/MTA Ratio” value at PRMT5 [2] (setting [5]) was “A (a Ki ratio greater than or equal to 10 fold between the Ki in the presence of SAM and the Ki in the presence of MTA)”.
